pEC50: −log10 of the molar value.
Assays:
Leishmania major = assay: Antileishmanial activity against Leishmania major MHOM/IL/80/Friedlin promastigotes after 72 hrs by Alamar blue assay; type: functional
Trypanosoma cruzi = assay: Trypanocidal activity against Trypanosoma cruzi strain CL Brener epimastogoes after 64 hrs by Alamar blue assay; type: functional
HeLa [1] = assay: Cytotoxicity against human HeLa cells after 64 hrs by Alamar blue assay; type: cell-based
Trypanosoma brucei [2] = assay: Trypanocidal activity against Trypanosoma brucei 427 procyclic forms after 64 hrs by Alamar blue assay; type: functional; settings: Trypanosoma brucei, 427, 64 h
Vero = assay: Cytotoxicity against African green monkey Vero cells after 72 hrs by Alamar blue assay; type: cell-based; settings: Chlorocebus sabaeus
Trypanosoma brucei [3] = assay: Trypanocidal activity against Trypanosoma brucei 427 blood stream forms after 64 hrs by Alamar blue assay; type: functional; settings: Trypanosoma brucei, 427, 64 h
Trypanosoma brucei [4] = assay: Trypanocidal activity against Trypanosoma brucei blood stream forms; type: functional
HeLa [5] = assay: Cytotoxicity against human HeLa cells; type: cell-based

Row | SMILES | pEC50 (Leishmania major) | pEC50 (Trypanosoma cruzi) | pEC50 (HeLa [1]) | pEC50 (Trypanosoma brucei [2]) | pEC50 (Vero) | pEC50 (Trypanosoma brucei [3]) | pEC50 (Trypanosoma brucei [4]) | pEC50 (HeLa [5])
1 | O=C(NCCCCCCOCCCC[C@H]1CCC[C@@H](Cn2cc([C@@H]3CCC[C@H](CCCCOCc4ccccc4)O3)nn2)O1)c1cocn1 | 4.67 | 4.74 | 4.66 | 5.00 | 4.58 | 5.08 |  | 
2 | NCCCCCCOCCCC[C@H]1CCC[C@@H](Cn2cc([C@@H]3CCC[C@H](CCCCOCc4ccccc4)O3)nn2)O1 | 4.72 | 4.78 | 5.09 | 5.04 |  | 5.24 |  | 
3 | O=C(NCCCCCCOCCCC[C@H]1CCC[C@@H](Cn2cc([C@@H]3CCC[C@H](CCCCOCc4ccccc4)O3)nn2)O1)c1cccs1 | < 3.30 | < 3.30 | < 3.30 | 5.32 |  | 5.29 |  | 
4 | Cn1cccc1C(=O)NCCCCCCOCCCC[C@H]1CCC[C@@H](Cn2cc([C@@H]3CCC[C@H](CCCCOCc4ccccc4)O3)nn2)O1 | 4.79 | < 3.30 | 3.75 | 5.30 |  | 5.34 |  | 
5 | COCCCCCCNC(=O)c1ccco1 | < 3.30 | < 3.30 | < 3.30 | 3.91 |  | 3.95 |  | 
6 | COCCCCCCNC(=O)c1ccc([N+](=O)[O-])o1 | 4.68 | 5.10 | 5.39 | 6.43 | 4.80 | 6.14 |  | 
7 | O=C(NCCCCCCOCCCC[C@H]1CCC[C@@H](Cn2cc([C@@H]3CCC[C@H](CCCCOCc4ccccc4)O3)nn2)O1)c1ccco1 | 5.11 | 5.10 | < 3.30 | 5.30 | < 3.30 | 5.42 |  | 
8 | O=C(NCCCCCCOCCCC[C@H]1CCC[C@@H](Cn2cc([C@@H]3CCC[C@H](CCCCOCc4ccccc4)O3)nn2)O1)c1ccccc1 | < 3.30 | < 3.30 | < 3.60 | 5.37 |  | 5.36 |  | 
9 | CCCCCC[C@H]1CCC[C@@H](Cn2cc([C@@H]3CCC[C@H](CCCCO)O3)nn2)O1 |  |  |  |  |  |  | 5.74 | 5.15
10 | Cc1nc(C(=O)NCCCCCCOCCCC[C@H]2CCC[C@@H](Cn3cc([C@@H]4CCC[C@H](CCCCOCc5ccccc5)O4)nn3)O2)co1 | 4.67 | 4.92 | 4.70 | 5.15 | 4.87 | 5.10 |  | 
11 | O=C(NCCCCCCOCCCC[C@H]1CCC[C@@H](Cn2cc([C@@H]3CCC[C@H](CCCCOCc4ccccc4)O3)nn2)O1)c1ccsc1 | 4.82 | < 3.30 | < 3.30 | 5.30 | < 3.30 | 5.24 |  | 
12 | O=C(NCCCCCCOCCCC[C@H]1CCC[C@@H](Cn2cc([C@@H]3CCC[C@H](CCCCOCc4ccccc4)O3)nn2)O1)c1ccc[nH]1 | < 3.30 | < 3.30 | < 4.00 | 5.34 |  | 5.30 |  | 
13 | Cc1ccoc1C(=O)NCCCCCCOCCCC[C@H]1CCC[C@@H](Cn2cc([C@@H]3CCC[C@H](CCCCOCc4ccccc4)O3)nn2)O1 | 4.17 | < 3.30 | 3.95 | 5.60 |  | 5.33 |  | 
14 | Cc1cc(C(=O)NCCCCCCOCCCC[C@H]2CCC[C@@H](Cn3cc([C@@H]4CCC[C@H](CCCCOCc5ccccc5)O4)nn3)O2)oc1C | 4.14 | 3.87 | < 4.00 | 5.41 |  | 5.34 |  | 
15 | Cn1nccc1C(=O)NCCCCCCOCCCC[C@H]1CCC[C@@H](Cn2cc([C@@H]3CCC[C@H](CCCCOCc4ccccc4)O3)nn2)O1 | 4.54 | 4.09 | < 4.00 | 5.26 |  | 5.21 |  | 
16 | Cc1ccc(C(=O)NCCCCCCOCCCC[C@H]2CCC[C@@H](Cn3cc([C@@H]4CCC[C@H](CCCCOCc5ccccc5)O4)nn3)O2)o1 | 4.79 | 3.73 | 4.37 | 5.51 |  | 5.31 to 5.33 |  | 
17 | O=C(NCCCCCCOCCCC[C@H]1CCC[C@@H](Cn2cc([C@@H]3CCC[C@H](CCCCOCc4ccccc4)O3)nn2)O1)c1ccc([N+](=O)[O-])o1 | 4.95 | 5.51 | 6.42 | 7.00 | 5.35 | 7.43 |  | 
18 | O=C(NCCCCCCOCCCC[C@H]1CCC[C@@H](Cn2cc([C@@H]3CCC[C@H](CCCCOCc4ccccc4)O3)nn2)O1)c1ccc(Cl)o1 | < 3.30 | < 3.30 | < 3.30 | 5.42 |  | 5.35 |  | 
19 | CCCCCC[C@H]1CCC[C@@H](Cn2cc([C@@H]3CCC[C@H](CCCCCCCCCCC4=C[C@H](C)OC4=O)O3)nn2)O1 |  |  |  |  |  |  | < 3.30 | < 3.00
20 | COCCCCCCNC(=O)c1ccnn1C | < 3.30 | < 3.30 | < 3.60 | 4.32 |  | 3.97 |  | 
21 | c1ccc(COCCCCCCOCCCC[C@H]2CCC[C@@H](Cn3cc([C@@H]4CCC[C@H](CCCCOCc5ccccc5)O4)nn3)O2)cc1 | 3.39 | < 3.30 | < 4.70 | 4.54 |  | 5.37 |  | 
22 | C[C@H]1C=C(CCCCCCCCCC[C@H]2CCC[C@@H](c3cn(C[C@@H]4CCC[C@H](CCCCOCc5ccccc5)O4)nn3)O2)C(=O)O1 |  |  |  |  |  |  | 5.28 | 5.68
23 | OCCCCCCOCCCC[C@H]1CCC[C@@H](Cn2cc([C@@H]3CCC[C@H](CCCCOCc4ccccc4)O3)nn2)O1 | 4.91 | 4.56 | 4.67 | 5.42 |  | 5.46 |  | 
24 | OCCCCCCOCCCC[C@H]1CCC[C@@H](Cn2cc([C@@H]3CCC[C@H](CCCCO)O3)nn2)O1 | 3.91 | 3.64 | 4.16 to 5.19 | 4.25 |  | 4.42 |  | 
25 | O=C(NCCCCCCOCCCC[C@H]1CCC[C@@H](Cn2cc([C@@H]3CCC[C@H](CCCCOCc4ccccc4)O3)nn2)O1)c1cscn1 | 4.66 | 4.90 | < 4.00 | 5.24 |  | 5.24 |  | 
26 | O=C(NCCCCCCOCCCC[C@H]1CCC[C@@H](Cn2cc([C@@H]3CCC[C@H](CCCCOCc4ccccc4)O3)nn2)O1)c1ccoc1 | 4.82 | < 3.30 | < 3.30 | 5.27 | < 3.30 | 5.41 |  | 

Source: ChEMBL document CHEMBL4043065, “Simplifying nature: Towards the design of broad spectrum kinetoplastid inhibitors, inspired by acetogenins” (Bioorg Med Chem, 2017)
